The test system of test [1] is non-small cell lung cancer cell line H460. Description: H460 proliferation assay in the presence of 3 uM ASP9521 (AKR1C3 specific inhibitor). The note with it: H460 cells, CellTiter-Glo, 72 hours, in the presence of 3 uM ASP9521 added 4 hours prior to compounds; read-out: CTG H460: Avg IC50 (nM) [Assay Condition: ASP9521]. Format: cell-based, human. Put shortly:
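AKR1C3 blocked with 3 uM ASP9521 given 4 h ahead of test compounds. H460 cells, plated 24 h earlier, were then treated for 72 h at 37 °C in 5% CO2. CellTiter-Glo luminescence gave viability.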

Test [2] shares this test system. Description: In vitro human cancer cell line cytotoxicity (proliferation) assay in H460, CellTiter-Glo, 72 hours. Format: cell-based. The settings on record: H460 cells, DMSO condition (no AKR1C3 inhibitor), read-out: CTG H460: Avg IC50 (nM) [Assay Condition: DMSO]. The method, boiled down:
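IC50s in nM come from CellTiter-Glo viability read after 72 h of compound exposure. Compounds went in from 10 mM DMSO stocks onto H460 cells, which had been plated at 3×10^3 per well and grown 24 h beforehand at 37 °C, 5% CO2.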

As a reminder, the IC50 is the concentration that inhibits the measured activity by half. In the case of `C[C@H](OP(=O)(N1CC1)N1CC1)c1cc2cc(Oc3ccc4c(c3)OC(F)(F)O4)c([N+](=O)[O-])cc2o1` [Example 551], the IC50 was 2600 nM in test [1] and under 10 nM in test [2] (Homo sapiens, NCI-H460, 72 h).

Turning to `O=[N+]([O-])c1ccc2c(c1Oc1cccc(-c3ccccn3)c1)CC[C@@H]2OP(=O)(N1CC1)N1CC1` [Example 297], the IC50 in test [1] is 1300 nM; in test [2] (Homo sapiens, NCI-H460, 72 h), under 10 nM.

On to `COc1cc(Oc2c([N+](=O)[O-])ccc3c2CC[C@@H]3OP(=O)(N2CC2)N2CC2)cc(-c2ccc(F)cn2)c1` [Example 353], for which the IC50 in test [1] was 1010 nM; in test [2] (Homo sapiens, NCI-H460, 72 h), under 10 nM.

As to `O=[N+]([O-])c1ccc2c(c1Oc1cccc(-n3cccn3)c1)CCC2OP(=O)(N1CC1)N1CC1` (centres unmarked) [Example 114], the IC50 was 1280 nM in test [1] and under 10 nM in test [2].

For the compound `O=[N+]([O-])c1ccc2c(c1Oc1cccc(OC(F)F)c1)CCC2OP(=O)(N1CC1)N1CC1` (racemic) [Example 454], the results for the IC50 in test [1] and in test [2] were 559 nM and under 10 nM, respectively.

With `Cc1nsc(-c2cccc(Oc3c([N+](=O)[O-])ccc4c3CC[C@@H]4OP(=O)(N3CC3)N3CC3)c2F)n1` [Example 360], the IC50 in test [1] is 391 nM; in test [2] (Homo sapiens, NCI-H460, 72 h), under 10 nM.

Consider `Cn1cc(-c2cccc(Oc3c([N+](=O)[O-])ccc4c3CCC4OP(=O)(N3CC3)N3CC3)c2)cn1` (racemic) [Example 299], for which the IC50 in test [1] is 744 nM; in test [2], under 10 nM.

Take `O=[N+]([O-])c1cc2oc(COP(=O)(N3CC3)N3CC3)cc2cc1Oc1cccc(OC(F)(F)F)c1` [Example 542]: the IC50 in test [1] is 963 nM; in test [2], under 10 nM.

For `O=C1CCCN1c1cc(Oc2c([N+](=O)[O-])ccc3c2CCC3OP(=O)(N2CC2)N2CC2)ccc1F` (centres unmarked) [Example 427], the IC50 is 756 nM in test [1] and under 10 nM in test [2].

For the compound `Cc1coc(-c2ccc(Oc3c([N+](=O)[O-])ccc4c3CC[C@@H]4OP(=O)(N3CC3)N3CC3)cc2)n1` [Example 291], the half-maximal inhibitory concentration (IC50) in test [1] was 1970 nM; in test [2] (Homo sapiens, NCI-H460, 72 h), under 10 nM.

With `CC1(C)CN(c2ccc(Oc3c([N+](=O)[O-])ccc4c3CCC4OP(=O)(N3CC3)N3CC3)cc2)C(=O)O1` (centres unmarked) [Example 426], the results for the concentration for half-maximal inhibition (IC50) in test [1] and in test [2] were 638 nM and under 10 nM, respectively.

`O=[N+]([O-])c1ccc2c(c1Oc1cccc(C(F)(F)F)c1)CCC2OP(=O)(N1CC1)N1CC1` (centres unmarked) [Example 308]: the IC50 in test [1] is 357 nM; in test [2], under 10 nM.

For the compound `CNC(=O)c1cc(Oc2c([N+](=O)[O-])ccc3c2CC[C@@H]3OP(=O)(N2CC2)N2CC2)ccc1F` [Example 260], the IC50 in test [1] is 734 nM; in test [2], under 10 nM.

On to `O=[N+]([O-])c1ccc2c(c1Oc1ccc(-n3cc(F)cn3)cc1)CCC2OP(=O)(N1CC1)N1CC1` (centres unmarked) [Example 422], for which the figures for the IC50 in test [1] and in test [2] were 821 nM and under 10 nM, respectively.

Consider `C[C@@H]1CN1P(=O)(OC(c1ccc([N+](=O)[O-])c(Oc2cccc(C(=O)N(C)C)c2)c1)C(F)(F)F)N1C[C@H]1C` (some centres unmarked) [Example 228], for which the IC50 was over 10000 nM in test [1] and 10 to 50 nM in test [2].

On to `C[C@@H]1CN1P(=O)(OCc1c(F)c(F)c(OCc2ccc([N+](=O)[O-])c(Oc3cccc(C(=O)N(C)C)c3)c2)c(F)c1F)N1C[C@H]1C` (some centres unmarked) [Example 13], for which the IC50 in test [1] is 195 nM; in test [2] (Homo sapiens, NCI-H460, 72 h), under 10 nM.

Consider `C[C@@H](OP(=O)(N1CC1)N1CC1)c1cc2cc(Oc3cccc(OC(F)(F)F)c3)c([N+](=O)[O-])cc2o1` (single isomer, unassigned) [Example 531], for which the half-inhibitory concentration (IC50) in test [1] was 1430 nM; in test [2] (Homo sapiens, NCI-H460, 72 h) it was under 10 nM.

Take `O=[N+]([O-])c1ccc2c(c1Oc1cc(O)cc(OCC3CC3)c1)CC[C@@H]2OP(=O)(N1CC1)N1CC1` [Example 446, (S)-4-(3-(cyclopropylmethoxy)-5-hydroxyphenoxy)-5-nitro-2,3-dihydro-1H-inden-1-yl di(aziridin-1-yl)phosphinate]: the IC50 in test [1] was 1210 nM; in test [2] (Homo sapiens, NCI-H460, 72 h) it was under 10 nM.

Take `O=[N+]([O-])c1cc2oc(COP(=O)(N3CC3)N3CC3)cc2cc1Oc1ccc(-c2ccccc2)cc1` [Example 230, (5-([1,1′-biphenyl]-4-yloxy)-6-nitrobenzofuran-2-yl)methyl di(aziridin-1-yl)phosphinate]: the IC50 in test [1] is 846 nM; in test [2] (Homo sapiens, NCI-H460, 72 h), under 10 nM.

Consider `C[C@H]1CN1P(=O)(OCc1c(F)c(F)c(OCc2ccc([N+](=O)[O-])c(Oc3ccc(C(=O)N(C)C)cc3)c2)c(F)c1F)N1C[C@@H]1C` (some centres unmarked) [Example 14], for which the IC50 in test [1] was 553 nM; in test [2] (Homo sapiens, NCI-H460, 72 h), under 10 nM.

Turning to `Cn1ccc2ccc(Oc3cc4c(cc3[N+](=O)[O-])CCC4OP(=O)(N3CC3)N3CC3)cc2c1=O` (centres unmarked) [Example 157], the figures for the IC50 in test [1] and in test [2] were 1240 nM and 10 to 50 nM, respectively.

For the compound `Cn1ncc(F)c1-c1cccc(Oc2c([N+](=O)[O-])ccc3c2CCC3OP(=O)(N2CC2)N2CC2)c1` (centres unmarked) [Example 373], the IC50 in test [1] was 672 nM; in test [2], under 10 nM.

For the compound `O=C(c1cccc(Oc2cc3cc(COP(=O)(N4CC4)N4CC4)oc3cc2[N+](=O)[O-])c1)N1CCCC1` [Example 530, (6-nitro-5-(3-(pyrrolidine-1-carbonyl)phenoxy)benzofuran-2-yl)methyl di(aziridin-1-yl)phosphinate], the IC50 in test [1] is 697 nM; in test [2] (Homo sapiens, NCI-H460, 72 h), under 10 nM.

With `Cc1noc(-c2ccc(Oc3c([N+](=O)[O-])ccc4c3CC[C@@H]4OP(=O)(N3CC3)N3CC3)cc2)n1` [Example 283], the IC50 was 1460 nM in test [1] and under 10 nM in test [2].

Take `O=[N+]([O-])c1ccc2c(c1Oc1cccc(OC(F)(F)F)c1)CC[C@@H]2OP(=O)(N1CC1)N1CC1` [Example 449]: the IC50 in test [1] is 570 nM; in test [2], under 10 nM.

As to `O=C(NC1CC1)c1ccc(Oc2c([N+](=O)[O-])ccc3c2CC[C@H]3OP(=O)(N2CC2)N2CC2)cc1` [Example 263], the IC50 in test [1] was 943 nM; in test [2], under 10 nM.

As for `O=[N+]([O-])c1cc2c(cc1Oc1ccc(-c3ccc(F)cc3)cc1)C(OP(=O)(N1CC1)N1CC1)CC2` (centres unmarked) [Example 145], the figures for the IC50 in test [1] and in test [2] were 1120 nM and under 10 nM, respectively.

`O=C1c2ccc(Oc3c([N+](=O)[O-])ccc4c3CC[C@@H]4OP(=O)(N3CC3)N3CC3)cc2CN1C1CC1` [Example 379]: the IC50 is 447 nM in test [1] and under 10 nM in test [2] (Homo sapiens, NCI-H460, 72 h).

Consider `CC(C)Oc1cccc(Oc2c([N+](=O)[O-])ccc3c2CC[C@@H]3OP(=O)(N2CC2)N2CC2)c1` [Example 452], for which the IC50 in test [1] is 2240 nM; in test [2] it was under 10 nM.

Regarding `COc1cncc(Oc2c([N+](=O)[O-])ccc3c2CC[C@H]3OP(=O)(N2CC2)N2CC2)c1` [Example 462], the values for the IC50 in test [1] and in test [2] were 917 nM and under 10 nM, respectively.

In the case of `O=[N+]([O-])c1cc2c(cc1Oc1ccc(-c3ccccn3)cc1)C(OP(=O)(N1CC1)N1CC1)CC2` (centres unmarked) [Example 524], the IC50 was 1190 nM in test [1] and under 10 nM in test [2].

On to `O=C(NC1CCC1)c1ccc(Oc2cc3c(cc2[N+](=O)[O-])CCC3OP(=O)(N2CC2)N2CC2)cc1` (centres unmarked) [Example 516], for which the IC50 in test [1] was 778 nM; in test [2], under 10 nM.

Take `C[C@H](OP(=O)(N1CC1)N1CC1)c1cc2cc(Oc3ccc4c(c3)CN(C)C4=O)c([N+](=O)[O-])cc2o1` [Example 565]: the IC50 was 5930 nM in test [1] and 10 to 50 nM in test [2].

Regarding `Cn1cccc(-c2ccc(Oc3c([N+](=O)[O-])ccc4c3CCC4OP(=O)(N3CC3)N3CC3)cc2)c1=O` (centres unmarked) [Example 49], the IC50 in test [1] is 920 nM; in test [2], under 10 nM.

On to `O=C(c1cccc(Oc2c([N+](=O)[O-])ccc3c2CCC3OP(=O)(N2CC2)N2CC2)c1)N1CCCOCC1` (centres unmarked) [Example 106], for which the IC50 in test [1] is 416 nM; in test [2] it was under 10 nM.

For `Cn1cc(-c2ccc(Oc3c([N+](=O)[O-])ccc4c3CCC4OP(=O)(N3CC3)N3CC3)cc2)ccc1=O` (centres unmarked) [Example 60], the IC50 in test [1] is 1010 nM; in test [2] it was at least 100 nM.

Turning to `O=C1c2cc(Oc3cc4c(cc3[N+](=O)[O-])CCC4OP(=O)(N3CC3)N3CC3)ccc2CN1C1COC1` (centres unmarked) [Example 162], the IC50 in test [1] is 969 nM; in test [2] (Homo sapiens, NCI-H460, 72 h) it was under 10 nM.

As for `CC(OP(=O)(N1C[C@@H]1C)N1C[C@@H]1C)c1ccc([N+](=O)[O-])c(Oc2ccc(-c3ccc(F)cn3)c(F)c2)c1` (some centres unmarked) [Example 223], the IC50 is 2590 nM in test [1] and under 10 nM in test [2].

Consider `CN(C)C(=O)c1cccc(Oc2cc3c(cc2[N+](=O)[O-])CCC3OP(=O)(N2CC2)N2CC2)c1` (centres unmarked) [Example 147], for which the IC50 in test [1] is 311 nM; in test [2], under 10 nM.

As for `O=C(c1ccc(Oc2cc3cc(COP(=O)(N4CC4)N4CC4)oc3cc2[N+](=O)[O-])cc1)N1CCOCC1` [Example 231], the half-maximal inhibitory concentration (IC50) in test [1] is 278 nM; in test [2] (Homo sapiens, NCI-H460, 72 h) it was under 10 nM.

As for `CN(C)C(=O)c1ccc(Oc2c([N+](=O)[O-])ccc3c2CCC3OP(=O)(N2CC2)N2CC2)cc1` (single isomer, unassigned) [Example 18], the concentration for half-maximal inhibition (IC50) in test [1] is 501 nM; in test [2], under 10 nM.

In the case of `O=[N+]([O-])c1cc2c(cc1Oc1ccccc1-c1ccccc1)C(OP(=O)(N1CC1)N1CC1)CC2` (centres unmarked) [Example 197], the IC50 in test [1] was 1760 nM; in test [2], at least 100 nM.

In the case of `C[C@H](OP(=O)(N1CC1)N1CC1)c1cc2cc(Oc3cccc(OC(F)(F)F)c3)c([N+](=O)[O-])cc2o1` (single isomer, unassigned) [Example 532], the IC50 in test [1] is 1230 nM; in test [2] (Homo sapiens, NCI-H460, 72 h) it was under 10 nM.

The values are drawn from patent US20260167656A1, “PHOSPHORAMIDATE COMPOUNDS AND USES THEREOF” (ALLORION THERAPEUTICS INC, priority 2022, published 2026).
